Experimental data: PubChem BioAssay (NCI)
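All cell lines were grown in 96-well plates and treated with compound for 48 hours. GI50 marks 50% less growth. The concentration for full growth arrest is given as TGI.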

How the values were obtained:
Test in all cases: NCI-60 cell line screen, 48 h
[1] = test system: SR leukemia
[2] = test system: NCI-H23 lung
[3] = test system: HCC-2998 colon
[4] = test system: HL-60(TB) leukemia
[5] = test system: SF-539 CNS
[6] = test system: RPMI-8226 leukemia
[7] = test system: SNB-75 CNS
[8] = test system: A498 renal
[9] = test system: HOP-92 NSCLC
[10] = test system: M14 melanoma
[11] = test system: T-47D breast
[12] = test system: MDA-MB-435
[13] = test system: UACC-62 melanoma
[14] = test system: HCT-15 colon
[15] = test system: HS 578T breast
[16] = test system: SNB-19 CNS
[17] = test system: HT29 colon
[18] = test system: COLO 205 colon
[19] = test system: UO-31 renal
[20] = test system: NCI-H226 lung
[21] = test system: SK-MEL-5 melanoma
[22] = test system: MCF7 breast
[23] = test system: MOLT-4 leukemia
[24] = test system: PC-3 prostate
[25] = test system: NCI-H460 lung
[26] = test system: MDA-MB-231 breast
[27] = test system: 786-0 renal
[28] = test system: SW-620 colon
[29] = test system: KM12 colon
[30] = test system: IGROV1 ovarian
[31] = test system: OVCAR-8 ovarian
[32] = test system: SK-MEL-2 melanoma
[33] = test system: MALME-3M melanoma
[34] = test system: RXF 393 renal
[35] = test system: SN12C renal
[36] = test system: SK-OV-3 ovarian
[37] = test system: NCI/ADR-RES ovarian
[38] = test system: K-562 leukemia
[39] = test system: OVCAR-4 ovarian
[40] = test system: HCT-116 colon
[41] = test system: CAKI-1 renal
[42] = test system: NCI-H522 lung
[43] = test system: OVCAR-3 ovarian
[44] = test system: HOP-62 NSCLC
[45] = test system: BT-549 breast
[46] = test system: SF-295 CNS
[47] = test system: OVCAR-5 ovarian
[48] = test system: U251 CNS
[49] = test system: CCRF-CEM leukemia
[50] = test system: UACC-257 melanoma
[51] = test system: SK-MEL-28 melanoma
[52] = test system: ACHN renal
[53] = test system: TK-10 renal
[54] = test system: A549 NSCLC
[55] = test system: DU-145 prostate
[56] = test system: SF-268 CNS
[57] = test system: LOX IMVI melanoma

SMILES: O=C(Nc1cccc(-n2cc(-c3ccncc3)c(-c3ccc(Cl)c(O)c3)n2)c1)Nc1ccc(Cl)c(C(F)(F)F)c1
- GI50 [1]: 0.663 µM
- TGI [1]: 2.05 µM
- GI50 [2]: 1.04 µM
- TGI [2]: 4 µM
- GI50 [3]: 1.39 µM
- TGI [3]: 6.23 µM
- GI50 [4]: 1.23 µM
- TGI [4]: 8.99 µM
- GI50 [5]: 0.73 µM
- TGI [5]: 2.2 µM
- GI50 [6]: 0.487 µM
- TGI [6]: 1.67 µM
- GI50 [7]: 0.514 µM
- TGI [7]: 5.05 µM
- GI50 [8]: 1.24 µM
- TGI [8]: 7.93 µM
- GI50 [9]: 0.31 µM
- TGI [9]: 1.29 µM
- GI50 [10]: 0.805 µM
- TGI [10]: 2.3 µM
- GI50 [11]: 0.911 µM
- TGI [11]: 9.01 µM
- GI50 [12]: 0.64 µM
- TGI [12]: 1.66 µM
- GI50 [13]: 0.609 µM
- TGI [13]: 1.47 µM
- GI50 [14]: 0.949 µM
- TGI [14]: 10.3 µM
- GI50 [15]: 1.05 µM
- TGI [15]: 15.7 µM
- GI50 [16]: 1.17 µM
- TGI [16]: 5.31 µM
- GI50 [17]: 2.05 µM
- TGI [17]: 7.11 µM
- GI50 [18]: 2.23 µM
- TGI [18]: 6.73 µM
- GI50 [19]: 0.738 µM
- TGI [19]: 2.59 µM
- GI50 [20]: 1.33 µM
- TGI [20]: 14.6 µM
- GI50 [21]: 0.528 µM
- TGI [21]: 1.04 µM
- GI50 [22]: 0.663 µM
- TGI [22]: 32.5 µM
- GI50 [23]: 0.777 µM
- TGI [23]: 2.93 µM
- GI50 [24]: 0.533 µM
- TGI [24]: 2.11 µM
- GI50 [25]: 0.963 µM
- TGI [25]: 3.69 µM
- GI50 [26]: 0.538 µM
- TGI [26]: 1.48 µM
- GI50 [27]: 1.02 µM
- TGI [27]: 8.25 µM
- GI50 [28]: 1.07 µM
- TGI [28]: 3.77 µM
- GI50 [29]: 0.91 µM
- TGI [29]: 3.43 µM
- GI50 [30]: 0.77 µM
- TGI [30]: 2.43 µM
- GI50 [31]: 0.759 µM
- TGI [31]: 2.28 µM
- GI50 [32]: 0.784 µM
- TGI [32]: 1.68 µM
- GI50 [33]: 0.557 µM
- TGI [33]: 1.58 µM
- GI50 [34]: 0.557 µM
- TGI [34]: 1.67 µM
- GI50 [35]: 1.05 µM
- TGI [35]: 10.3 µM
- GI50 [36]: 1.27 µM
- TGI [36]: 9.73 µM
- GI50 [37]: 1.01 µM
- TGI [37]: 9.46 µM
- GI50 [38]: 0.768 µM
- TGI [38]: 9.36 µM
- GI50 [39]: 1.12 µM
- TGI [39]: 27.2 µM
- GI50 [40]: 0.938 µM
- TGI [40]: 3.63 µM
- GI50 [41]: 0.726 µM
- TGI [41]: 2.3 µM
- GI50 [42]: 0.643 µM
- TGI [42]: 2.19 µM
- GI50 [43]: 0.658 µM
- TGI [43]: 1.95 µM
- GI50 [44]: 1.04 µM
- TGI [44]: 4.75 µM
- GI50 [45]: 1.16 µM
- TGI [45]: 5.36 µM
- GI50 [46]: 0.656 µM
- TGI [46]: 1.71 µM
- GI50 [47]: 1.71 µM
- TGI [47]: 12.3 µM
- GI50 [48]: 0.542 µM
- TGI [48]: 1.27 µM
- GI50 [49]: 0.719 µM
- TGI [49]: 2.7 µM
- GI50 [50]: 0.705 µM
- TGI [50]: 1.88 µM
- GI50 [51]: 0.928 µM
- TGI [51]: 3.21 µM
- GI50 [52]: 0.89 µM
- TGI [52]: 32.5 µM
- GI50 [53]: 1.33 µM
- TGI [53]: 7.52 µM
- GI50 [54]: 0.914 µM
- TGI [54]: 4.07 µM
- GI50 [55]: 1.16 µM
- TGI [55]: 4.51 µM
- GI50 [56]: 1.11 µM
- TGI [56]: 6.65 µM
- GI50 [57]: 0.554 µM
- TGI [57]: 1.15 µM
